Literature values in patent US11602517B2, “Pharmaceutical composition, comprising polmacoxib and pregabalin, for treatment of pain” (CRYSTALGENOMICS, INC., priority 2018, dated 2023).

Key:
[1] = white or light yellow crystalline powder

## CC(C)C[C@H](CN)CC(=O)O [Pregabalin, (S)-(+)-3-(aminomethyl)-5-methyl-hexanoic acid]
Absorbed from the upper part of the small intestine
  average absorption time: 6 h
Absorption in the body
  time to reach maximum blood concentration: ≤ 1.3 h
In vivo
  bioavailability: about 90%
[1]
  solubility in water: soluble in water
